Measurements as given in ChEMBL document CHEMBL5465560, “Selectivity Literature for EUbOPEN Chemogenomic Library” (2024).

How the values were obtained:
[1] = biological target: SRSF protein kinase 2 (Homo sapiens) (UniProt P78362); assay: Selectivity interaction (KinomeScan (DiscoverX)) EUB0000595a SRPK2; details: at 10 µM
[2] = biological target: T1, Mitogen-activated protein kinase 13 (Homo sapiens) (UniProt O15264); assay: Selectivity interaction (KinomeScan (DiscoverX)) EUB0000045b MAPK13
T1 sequence (whole entry): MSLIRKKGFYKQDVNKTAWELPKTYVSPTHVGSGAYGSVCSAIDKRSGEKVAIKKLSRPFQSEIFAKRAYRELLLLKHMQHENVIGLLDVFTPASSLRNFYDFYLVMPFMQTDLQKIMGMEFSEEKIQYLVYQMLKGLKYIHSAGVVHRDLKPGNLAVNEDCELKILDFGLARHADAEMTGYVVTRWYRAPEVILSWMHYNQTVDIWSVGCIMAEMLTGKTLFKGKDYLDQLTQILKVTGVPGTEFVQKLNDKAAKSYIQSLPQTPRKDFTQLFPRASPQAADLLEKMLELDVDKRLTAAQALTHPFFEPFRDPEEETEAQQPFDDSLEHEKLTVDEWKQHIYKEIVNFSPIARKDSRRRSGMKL

[3] = biological target: Serine/threonine-protein kinase 33 (Homo sapiens) (UniProt Q9BYT3); assay: Selectivity interaction (KinomeScan (DiscoverX)) EUB0000695a STK33; details: at 100 nM
Sequence of Serine/threonine-protein kinase 33 (Homo sapiens) (Q9BYT3 whole entry, looked up): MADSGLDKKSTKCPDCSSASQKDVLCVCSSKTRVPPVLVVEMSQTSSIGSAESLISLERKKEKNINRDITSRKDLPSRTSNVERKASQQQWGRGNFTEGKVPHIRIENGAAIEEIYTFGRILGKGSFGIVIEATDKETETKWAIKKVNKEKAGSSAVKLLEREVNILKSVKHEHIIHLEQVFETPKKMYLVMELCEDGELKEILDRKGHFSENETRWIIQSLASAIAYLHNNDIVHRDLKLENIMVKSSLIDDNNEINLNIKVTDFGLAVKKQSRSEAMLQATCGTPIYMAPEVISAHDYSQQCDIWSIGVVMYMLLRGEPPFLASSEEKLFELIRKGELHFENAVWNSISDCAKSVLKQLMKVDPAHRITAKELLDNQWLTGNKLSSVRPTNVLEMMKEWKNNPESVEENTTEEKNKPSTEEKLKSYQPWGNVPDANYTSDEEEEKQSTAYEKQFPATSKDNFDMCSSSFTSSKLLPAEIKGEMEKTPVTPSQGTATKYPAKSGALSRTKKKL

[4] = biological target: Dual specificity protein kinase CLK4 (Homo sapiens, UniProt Q9HAZ1); assay: Selectivity interaction (KinomeScan (DiscoverX)) EUB0001079a CLK4; details: at 1 µM
[5] = biological target: Ribosomal protein S6 kinase beta-2 (Homo sapiens) (UniProt Q9UBS0); assay: Selectivity interaction (Kinase panel (Z-LYTE Assay)) EUB0001632a RPS6KB2; details: at 10 µM
Sequence of Ribosomal protein S6 kinase beta-2 (Homo sapiens) (Q9UBS0 whole entry): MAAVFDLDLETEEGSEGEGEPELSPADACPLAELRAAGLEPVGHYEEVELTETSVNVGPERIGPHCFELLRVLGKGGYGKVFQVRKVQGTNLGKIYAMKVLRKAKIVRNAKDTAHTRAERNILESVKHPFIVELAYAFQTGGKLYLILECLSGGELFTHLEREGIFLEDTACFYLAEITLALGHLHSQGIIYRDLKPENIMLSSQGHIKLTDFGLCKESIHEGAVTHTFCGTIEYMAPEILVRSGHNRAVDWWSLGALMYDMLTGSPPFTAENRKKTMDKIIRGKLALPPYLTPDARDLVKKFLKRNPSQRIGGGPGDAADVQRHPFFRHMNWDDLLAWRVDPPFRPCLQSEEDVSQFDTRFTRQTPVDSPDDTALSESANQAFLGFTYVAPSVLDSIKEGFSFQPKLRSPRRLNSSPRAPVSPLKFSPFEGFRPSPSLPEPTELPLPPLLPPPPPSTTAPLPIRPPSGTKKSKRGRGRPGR

[6] = biological target: Serine/threonine-protein kinase PLK3 (Homo sapiens, UniProt Q9H4B4); assay: Selectivity interaction (KinomeScan (DiscoverX)) EUB0000666a PLK3; details: at 10 µM
[7] = biological target: Mitogen-activated protein kinase 3 (Homo sapiens, UniProt P27361); assay: Selectivity interaction (KinomeScan (DiscoverX)) EUB0001049a MAPK3; details: at 1 µM
Sequence of Mitogen-activated protein kinase 3 (P27361 whole entry): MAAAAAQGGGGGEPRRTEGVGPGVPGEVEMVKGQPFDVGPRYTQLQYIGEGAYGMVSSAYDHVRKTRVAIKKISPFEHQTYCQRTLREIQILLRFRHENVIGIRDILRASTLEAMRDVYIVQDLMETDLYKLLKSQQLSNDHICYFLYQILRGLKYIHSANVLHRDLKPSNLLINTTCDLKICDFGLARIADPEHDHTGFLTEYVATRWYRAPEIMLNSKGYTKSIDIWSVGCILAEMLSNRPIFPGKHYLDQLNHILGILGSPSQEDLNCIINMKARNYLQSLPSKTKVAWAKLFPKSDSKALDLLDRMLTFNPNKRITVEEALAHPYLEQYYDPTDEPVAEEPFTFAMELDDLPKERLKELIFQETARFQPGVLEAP

[8] = biological target: T2, Myosin-IIIb (Homo sapiens) (UniProt Q8WXR4); assay: Selectivity interaction (KinomeScan (DiscoverX)) EUB0001619a MYO3B; details: at 1 µM
T2 sequence (whole entry): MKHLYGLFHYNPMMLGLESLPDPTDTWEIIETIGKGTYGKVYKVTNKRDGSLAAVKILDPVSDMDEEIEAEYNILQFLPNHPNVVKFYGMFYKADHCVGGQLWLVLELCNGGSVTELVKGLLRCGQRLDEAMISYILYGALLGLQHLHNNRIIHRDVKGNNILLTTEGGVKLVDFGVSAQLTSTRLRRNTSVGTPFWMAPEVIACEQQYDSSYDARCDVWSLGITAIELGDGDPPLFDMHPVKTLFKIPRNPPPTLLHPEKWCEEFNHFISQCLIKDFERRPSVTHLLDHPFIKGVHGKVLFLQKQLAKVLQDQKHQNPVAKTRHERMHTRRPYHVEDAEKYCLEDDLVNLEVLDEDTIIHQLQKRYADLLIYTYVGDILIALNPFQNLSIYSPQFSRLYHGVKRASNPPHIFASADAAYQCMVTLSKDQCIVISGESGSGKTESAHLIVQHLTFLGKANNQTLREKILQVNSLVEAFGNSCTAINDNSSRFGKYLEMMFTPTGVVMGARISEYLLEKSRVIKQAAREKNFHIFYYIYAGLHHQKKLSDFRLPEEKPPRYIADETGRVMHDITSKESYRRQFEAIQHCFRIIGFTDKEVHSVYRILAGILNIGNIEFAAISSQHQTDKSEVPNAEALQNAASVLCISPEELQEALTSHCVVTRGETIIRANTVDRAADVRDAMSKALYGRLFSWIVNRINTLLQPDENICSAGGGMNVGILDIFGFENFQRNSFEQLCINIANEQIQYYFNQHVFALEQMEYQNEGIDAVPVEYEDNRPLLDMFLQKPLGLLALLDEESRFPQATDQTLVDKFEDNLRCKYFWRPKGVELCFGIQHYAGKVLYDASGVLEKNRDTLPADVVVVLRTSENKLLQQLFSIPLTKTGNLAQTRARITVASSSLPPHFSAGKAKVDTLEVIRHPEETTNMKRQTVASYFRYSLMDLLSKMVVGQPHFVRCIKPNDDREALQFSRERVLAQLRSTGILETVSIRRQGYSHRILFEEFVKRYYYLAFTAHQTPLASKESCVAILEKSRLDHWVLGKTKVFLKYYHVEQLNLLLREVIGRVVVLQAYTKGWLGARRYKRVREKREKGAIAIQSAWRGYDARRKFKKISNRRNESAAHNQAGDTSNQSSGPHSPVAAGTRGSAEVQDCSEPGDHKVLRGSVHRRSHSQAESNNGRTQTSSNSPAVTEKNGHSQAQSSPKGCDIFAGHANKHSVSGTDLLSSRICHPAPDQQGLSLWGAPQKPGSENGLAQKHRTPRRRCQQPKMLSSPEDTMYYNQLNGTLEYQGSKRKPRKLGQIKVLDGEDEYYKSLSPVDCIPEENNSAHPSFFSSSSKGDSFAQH

[9] = biological target: Casein kinase II subunit alpha' (Homo sapiens) (UniProt P19784); assay: Selectivity interaction (Kinase panel (DSF assay)) EUB0001558a CSNK2A2
[10] = biological target: Tyrosine-protein kinase SYK (Homo sapiens, UniProt P43405); assay: Selectivity interaction (KinomeScan (DiscoverX)) EUB0000618a SYK; details: at 10 µM
[11] = biological target: Mast/stem cell growth factor receptor Kit (Homo sapiens, UniProt P10721); assay: Selectivity interaction (Kinase panel (Invitrogen)) EUB0000639a KIT; details: at 200 nM
[12] = biological target: RAC-beta serine/threonine-protein kinase (Homo sapiens) (UniProt P31751); assay: Selectivity interaction (Kinase panel (Invitrogen)) EUB0000639a AKT2; details: at 200 nM
[13] = biological target: Casein kinase I isoform alpha (Homo sapiens, UniProt P48729); assay: Selectivity interaction (ActivX KiNativ screen (kinase selectivity in THP-1 cell lysates)) EUB0000639a CSNK1A1; assay type: subcellular; details: lysate, at 0.01 µM
Sequence of Casein kinase I isoform alpha (P48729 2-337 limits assumed): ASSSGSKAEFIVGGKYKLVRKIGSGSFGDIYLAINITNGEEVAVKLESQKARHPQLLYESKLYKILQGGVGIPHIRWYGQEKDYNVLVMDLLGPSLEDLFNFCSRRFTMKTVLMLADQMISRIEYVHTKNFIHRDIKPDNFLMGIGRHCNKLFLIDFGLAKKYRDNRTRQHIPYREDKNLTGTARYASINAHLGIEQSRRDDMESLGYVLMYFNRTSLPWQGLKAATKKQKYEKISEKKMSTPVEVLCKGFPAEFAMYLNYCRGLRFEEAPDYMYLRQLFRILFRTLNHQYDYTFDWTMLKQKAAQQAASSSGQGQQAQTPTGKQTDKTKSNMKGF

[14] = biological target: Serine/threonine-protein kinase Nek7 (Homo sapiens) (UniProt Q8TDX7); assay: Selectivity interaction (ActivX KiNativ screen (kinase selectivity in THP-1 cell lysates)) EUB0000639a NEK7; assay type: subcellular; details: lysate, at 0.01 µM
Sequence of Serine/threonine-protein kinase Nek7 (Homo sapiens) (Q8TDX7 whole entry, looked up): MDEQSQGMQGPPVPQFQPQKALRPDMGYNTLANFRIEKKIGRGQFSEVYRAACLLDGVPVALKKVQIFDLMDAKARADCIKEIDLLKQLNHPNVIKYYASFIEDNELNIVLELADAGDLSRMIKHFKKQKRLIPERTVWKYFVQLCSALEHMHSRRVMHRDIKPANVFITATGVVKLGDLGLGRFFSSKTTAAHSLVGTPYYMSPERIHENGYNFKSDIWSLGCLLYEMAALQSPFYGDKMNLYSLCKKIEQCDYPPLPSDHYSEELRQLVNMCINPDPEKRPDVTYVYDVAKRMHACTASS

[15] = biological target: Wee1-like protein kinase (Homo sapiens) (UniProt P30291); assay: Selectivity interaction (KinomeScan (DiscoverX)) EUB0000655a WEE1; details: at 10 µM
Sequence of Wee1-like protein kinase (Homo sapiens) (P30291 whole entry, looked up): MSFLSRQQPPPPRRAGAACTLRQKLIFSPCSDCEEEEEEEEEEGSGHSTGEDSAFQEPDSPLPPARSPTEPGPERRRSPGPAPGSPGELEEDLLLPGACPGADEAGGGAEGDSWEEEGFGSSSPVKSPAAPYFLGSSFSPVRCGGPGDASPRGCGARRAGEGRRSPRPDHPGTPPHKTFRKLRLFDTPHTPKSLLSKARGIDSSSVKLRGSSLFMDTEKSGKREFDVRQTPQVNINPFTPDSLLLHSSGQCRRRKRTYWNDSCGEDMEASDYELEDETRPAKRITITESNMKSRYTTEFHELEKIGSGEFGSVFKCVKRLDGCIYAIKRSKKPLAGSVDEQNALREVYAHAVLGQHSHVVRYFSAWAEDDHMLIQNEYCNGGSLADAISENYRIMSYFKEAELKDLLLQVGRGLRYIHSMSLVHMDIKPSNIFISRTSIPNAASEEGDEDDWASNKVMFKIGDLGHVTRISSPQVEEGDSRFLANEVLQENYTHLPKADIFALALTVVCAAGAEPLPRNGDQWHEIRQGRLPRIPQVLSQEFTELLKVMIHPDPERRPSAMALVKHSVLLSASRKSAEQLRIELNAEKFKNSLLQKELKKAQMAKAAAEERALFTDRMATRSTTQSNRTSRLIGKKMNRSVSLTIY

[16] = biological target: Tyrosine-protein kinase Srms (Homo sapiens) (UniProt Q9H3Y6); assay: Selectivity interaction (KinomeScan (DiscoverX)) EUB0000655a SRMS; details: at 10 µM
Sequence of Tyrosine-protein kinase Srms (Homo sapiens) (Q9H3Y6 whole entry): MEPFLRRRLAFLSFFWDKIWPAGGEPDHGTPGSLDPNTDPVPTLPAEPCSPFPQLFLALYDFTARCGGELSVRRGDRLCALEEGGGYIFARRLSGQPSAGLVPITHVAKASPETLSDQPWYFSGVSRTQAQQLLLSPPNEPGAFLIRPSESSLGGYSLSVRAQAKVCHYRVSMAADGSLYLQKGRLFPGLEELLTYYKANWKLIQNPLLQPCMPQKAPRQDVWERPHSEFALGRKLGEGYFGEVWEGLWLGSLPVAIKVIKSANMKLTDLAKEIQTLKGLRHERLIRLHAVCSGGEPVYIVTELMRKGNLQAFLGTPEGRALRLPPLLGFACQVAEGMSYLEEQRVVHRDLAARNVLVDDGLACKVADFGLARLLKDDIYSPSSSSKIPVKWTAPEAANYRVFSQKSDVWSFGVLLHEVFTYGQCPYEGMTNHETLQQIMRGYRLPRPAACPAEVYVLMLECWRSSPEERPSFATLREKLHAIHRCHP

[17] = biological target: Atypical kinase COQ8A, mitochondrial (Homo sapiens, UniProt Q8NI60); assay: Selectivity interaction (KinomeScan (DiscoverX)) EUB0000092b ADCK3; details: at 10 µM
Sequence of Atypical kinase COQ8A, mitochondrial (Q8NI60 163-647 limits assumed): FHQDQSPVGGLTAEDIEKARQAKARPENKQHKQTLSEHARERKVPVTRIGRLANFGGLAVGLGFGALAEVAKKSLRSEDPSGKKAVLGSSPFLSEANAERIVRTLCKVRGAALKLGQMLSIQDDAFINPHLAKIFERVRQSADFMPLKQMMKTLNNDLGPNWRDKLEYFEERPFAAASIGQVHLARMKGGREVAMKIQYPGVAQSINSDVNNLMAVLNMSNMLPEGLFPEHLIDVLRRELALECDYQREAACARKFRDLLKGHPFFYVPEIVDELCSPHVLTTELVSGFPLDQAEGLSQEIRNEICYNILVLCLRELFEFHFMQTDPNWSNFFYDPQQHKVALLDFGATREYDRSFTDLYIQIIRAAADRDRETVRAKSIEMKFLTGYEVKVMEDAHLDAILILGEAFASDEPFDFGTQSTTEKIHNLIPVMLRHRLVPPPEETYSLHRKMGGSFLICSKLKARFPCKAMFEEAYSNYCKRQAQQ

[18] = biological target: Calcium/calmodulin-dependent protein kinase type II subunit alpha (Homo sapiens, UniProt Q9UQM7); assay: Selectivity interaction (KinomeScan (DiscoverX)) EUB0000092b CAMK2A; details: at 10 µM
Sequence of Calcium/calmodulin-dependent protein kinase type II subunit alpha (Q9UQM7 whole entry): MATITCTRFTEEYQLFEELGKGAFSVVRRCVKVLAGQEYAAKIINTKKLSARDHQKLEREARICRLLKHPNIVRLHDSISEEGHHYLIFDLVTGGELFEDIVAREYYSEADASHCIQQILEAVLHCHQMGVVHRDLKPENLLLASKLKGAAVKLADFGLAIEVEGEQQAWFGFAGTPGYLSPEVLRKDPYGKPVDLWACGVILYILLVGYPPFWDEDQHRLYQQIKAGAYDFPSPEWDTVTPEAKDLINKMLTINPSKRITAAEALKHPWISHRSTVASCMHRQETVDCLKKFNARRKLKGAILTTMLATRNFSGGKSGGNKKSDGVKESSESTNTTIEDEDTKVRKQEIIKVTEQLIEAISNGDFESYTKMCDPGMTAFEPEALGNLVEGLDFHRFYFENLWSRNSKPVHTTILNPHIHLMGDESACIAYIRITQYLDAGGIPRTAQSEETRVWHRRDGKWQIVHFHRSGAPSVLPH

Sequence of SRSF protein kinase 2 (Homo sapiens) (P78362 whole entry, looked up): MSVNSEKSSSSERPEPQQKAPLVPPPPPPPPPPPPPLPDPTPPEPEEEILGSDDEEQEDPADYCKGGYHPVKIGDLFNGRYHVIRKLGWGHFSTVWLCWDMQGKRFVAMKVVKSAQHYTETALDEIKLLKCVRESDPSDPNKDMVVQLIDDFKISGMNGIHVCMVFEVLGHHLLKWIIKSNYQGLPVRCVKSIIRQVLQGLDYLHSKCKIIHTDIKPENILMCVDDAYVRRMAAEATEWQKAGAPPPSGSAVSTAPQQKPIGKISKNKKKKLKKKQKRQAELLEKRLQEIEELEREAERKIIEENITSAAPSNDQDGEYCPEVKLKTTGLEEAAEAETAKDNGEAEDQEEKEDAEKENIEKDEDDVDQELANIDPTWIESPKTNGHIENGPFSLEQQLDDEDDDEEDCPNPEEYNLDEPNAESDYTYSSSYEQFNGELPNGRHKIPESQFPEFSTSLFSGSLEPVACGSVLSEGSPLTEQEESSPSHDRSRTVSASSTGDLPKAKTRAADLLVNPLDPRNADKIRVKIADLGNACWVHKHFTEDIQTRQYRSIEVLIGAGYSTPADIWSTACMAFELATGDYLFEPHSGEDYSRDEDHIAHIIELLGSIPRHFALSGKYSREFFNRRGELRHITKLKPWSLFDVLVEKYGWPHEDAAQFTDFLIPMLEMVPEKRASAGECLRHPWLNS

COCC(=O)NC/C=C/c1ccc2ncnc(Nc3ccc(Oc4ccc(C)nc4)c(C)c3)c2c1 [CP-724714]
% of control [1]: 92%

C=CC(=O)Nc1cc(-n2c(=O)ccc3cnc4ccc(-c5ccc(NS(C)(=O)=O)cc5)cc4c32)ccc1C
% of control ([2]; at 1 µM): 100%
% of control ([2]; at 10 µM): 100%

Cc1cc(F)c(C(=O)Nc2cccc(-c3nncn3C(C)C)n2)cc1-n1cnc(C2CC2)c1
% of control [3]: 78%

Nc1cnc(N2CCc3cc(S(=O)(=O)Nc4c(F)cc(Cl)cc4F)cc(N4CCCC4=O)c32)nc1 [TP-020n]
% of control [4]: 89%

Cn1cc(-n2cnc3c(NCc4nc5cc(Cl)c(Cl)cc5[nH]4)nc(N4CCOCC4)nc32)cn1
% of control [5]: 3.53%

O=C(NOC[C@H](O)CO)c1ccc(F)c(F)c1Nc1ccc(I)cc1F
% of control [6]: 100%

COc1cc(Nc2nc(C)cc(-c3cnn4nc(OC)ccc34)n2)cc(C(F)(F)F)c1
% of control [7]: 98%

N#Cc1cccc(-c2c[nH]c3ncnc(N4CCOCC4)c23)c1
% of control [8]: 100%

CC(C)(O)[C@H](F)CN1Cc2cc(NC(=O)c3cnn4cccnc34)c(N3CCOCC3)cc2C1=O
dTM [9]: 0.1 K

O[C@H]1CC[C@H](Nc2ncc3nc(Nc4c(F)cc(F)cc4F)n([C@H]4CCOC4)c3n2)CC1
% of control [10]: 100%

CC[C@@H]1[C@H](F)C(=O)N[C@@H]1COc1nccc2cc(C(N)=O)c(OC)cc12 [ZIMLOVISERTIB]
% of inhibition [11]: 0.275%
% of inhibition [12]: 4.03%
% of inhibition [13]: 2.1%
% of inhibition [14]: -2.2%

CN(C)CCOc1ccc(-c2nc(-c3ccncc3)c(-c3ccc4c(c3)CC/C4=N\O)[nH]2)cc1
% of control [15]: 100%
% of control [16]: 74%

CCC(=O)N1CCN(c2ccc(-n3c(=O)ccc4cnc5ccc(-c6cnc7ccccc7c6)cc5c43)cc2C(F)(F)F)CC1
% of control [17]: 17%
% of control [18]: 93%
